Assay results reported in patent US8183283B2, “Dendrite elongation inhibitor for melanocyte and skin preparation for external use containing the same” (Pola Chemical Industries Inc., priority 2002, dated 2012).

System: Normal human melanocyte
Experiment: Inhibitory action on the elongation of dendrites using human melanocytes
Assay type: cell-based
Excerpt: According to a method shown below, inhibitory action on the elongation of dendrites was examined using human melanocytes. (Reagent, etc.) Cells, basal media, and amplification additives were purchased from KURABO INDUSTRIES LTD.
(Cell) Normal human melanocyte
(Medium) Basal medium (Medium 1545) supplemented with reagents described below
(Reagent) Amplification additive: bovine pituitary extract (BPE) (final concentration of 0.4% v/v in the medium), fetal bovine serum (FBS) (final concentration of 0.5% v/v in the medium), human recombinant basic fibroblast growth factor (rFGF-B) (final concentration of 3 ng/ml in the medium), hydrocortisone (final concentration of 0.18 μg/ml in the medium), insulin (final concentration 5 μg/ml in the medium), transferrin (final concentration of 5 μg/ml in the medium), phorbol 12-myristate 13-acetate (PMA) (final concentration of 10 ng/ml in the medium), heparin (final concentration of 3 μg/ml in the medium), and PSA solution (mixture solution of penicillin concentration of 50,000 Unit/ml, streptomycin concentration of 50 μg/ml, and amphotericin B concentration of 12.5 μg/ml; 1-ml addition with respect to 500 ml of the medium) (Method) […]

`COc1ccc(-c2oc3cc(O)c(OC)c(O)c3c(=O)c2OC)cc1O` [Centaureidin, 5,7-dihydroxy-3,6-dimethoxy-2-(5-hydroxy-4-methoxyphenyl)-4H-1-benzopyran-4-on] was tested, and the “Inhibition against the elongation of dendrites (in words)” value (24 hours after addition of the sample solution, versus control) was “elongation is inhibited” and the Length of dendrite (sample solution with 100 μg/ml Centaureidin, 50 μl added to 200 μl medium, observed 24 hours after addition, growth factor-supplemented medium) was 26 ± 8 μm.
